Assay results taken from patent US20060093596A1, “Genomic approach to identification of novel broad-spectrum antimicrobial peptides from bony fish” (priority 2002, published 2006).
Where no end group is shown, it is not given here.

Columns and labels:
[1] = test system: Staphylococcus epidermidis C621 (clinical isolate)
Description: (§1) Most non-fish bacterial strains as well as Candida albicans were grown at 37° C. in Mueller-Hinton Broth (MHB; Difco Laboratories, Detroit), while the fish bacteria were maintained at 16° C. in Tryptic Soy Broth (TSB; Difco, 5g/l NaCl). All strains were stored at −70° C. until they were thawed for use and sub-cultured daily. The following strains, Pseudomonas aeruginosa K799 (parent of Z61), Pseudomonas aeruginosa Z61 (antibiotic supersusceptible), Salmonella typhimurium 14028s (parent of MS7953s), Salmonella typhimurium MS7953s (defensin supersusceptible), as well as Staphylococcus epidermidis (human clinical isolates) and methicillin-resistant Staphylococcus aureus (MRSA; isolated by Dr. A. Chow, University of British Columbia) have been kindly donated by Prof R. E. W. Hancock, University of British Columbia.
(§2) The activities of the antimicrobial peptides were determined as minimal inhibitory concentrations (MICs) using the microtitre broth dilution method of Amsterdam (Amsterdam, 1996), as modified by Wu and Hancock (1999). Serial dilutions of the peptide were made in water in 96-well polypropylene (Costar, Coming Incorporated, Coming, New York) microtiter plates. Bacteria or C. albicans were grown overnight to mid-logarithmic phase as described above, and diluted to give a final inoculum size of 10^6 cfu/ml. A suspension of bacteria or yeast was added to each well of a 96 well plate and incubated overnight at the appropriate temperature. […] Three repeats of each MIC determination were performed.

[2] = test system: Pseudomonas aeruginosa Z61 (H188, supersusceptible strain); type: cell-based; conditions: lowest peptide concentration inhibiting growth by at least 50%; Mueller-Hinton broth
Description: as §1, §2

[3] = test system: Candida albicans C627, CALB105; conditions: C627, CALB105
Description: as §1, §2

[4] = test system: Aeromonas salmonicida 99-1, A449
Description: (§3) Most non-fish bacterial strains as well as Candida albicans were grown at 37° C. in Mueller-Hinton Broth (MHB; Difco Laboratories, Detroit), while the fish bacteria were maintained at 16° C. in Tryptic Soy Broth (TSB; Difco, 5g/l NaCl).
(§4) Two field isolates of the salmonid pathogen Aeromonas salmonicida are from the IMB strain collection.
as §2

[5] = test system: Escherichia coli DC2 (C500, outer membrane-permeable mutant); type: cell-based; conditions: lowest peptide concentration inhibiting growth by at least 50%; Mueller-Hinton broth
Description: as §1, §2

[6] = test system: Escherichia coli UB1005 (C498); type: cell-based; conditions: lowest peptide concentration inhibiting growth by at least 50%; Mueller-Hinton broth
Description: as §1, §2

[7] = test system: Pseudomonas aeruginosa K799 (H187); type: cell-based; conditions: lowest peptide concentration inhibiting growth by at least 50%; Mueller-Hinton broth
Description: as §1, §2

[8] = test system: Salmonella enterica s. Typhimurium 14028S (C587); type: cell-based; conditions: lowest peptide concentration inhibiting growth by at least 50%; Mueller-Hinton broth
Description: as §1, §2

[9] = test system: methicillin-resistant Staphylococcus aureus (MRSA) C623, SAP017; conditions: methicillin-resistant C623, SAP017
Description: as §1, §2

[10] = test system: Escherichia coli C786, CGSC4908; type: cell-based; conditions: lowest peptide concentration inhibiting growth by at least 50%; supplemented Mueller-Hinton broth
Description: All strains were stored at −70° C. until they were thawed for use and sub-cultured daily.
Escherichia coli strain CGSC 4908 (his-67, thyA43, pyr-37), auxotrophic for thymidine, uridine, and L-histidine (Cohen et al., 1963) was kindly supplied, free of charge, by the E.coli Genetic Stock Centre (Yale University, New Haven, Conn.). MHB supplemented with 5 mg/L thymidine, 10 mg/L uridine and 20 mg/L L-histidine (Sigma Chemical Co., St. Louis, Mo.), was used to grow E.coli CGSC 4908 unless otherwise specified.
The activities of the antimicrobial peptides were determined as minimal inhibitory concentrations (MICs) using the microtitre broth dilution method of Amsterdam (Amsterdam, 1996), as modified by Wu and Hancock (1999). Serial dilutions of the peptide were made in water in 96-well polypropylene (Costar, Coming Incorporated, Coming, New York) microtiter plates. Bacteria or C. albicans were grown overnight to mid-logarithmic phase as described above, and diluted to give a final inoculum size of 10^6 cfu/ml. A suspension of bacteria or yeast was added to each well of a 96 well plate and incubated overnight at the appropriate temperature. In the case of E. coli CGSC 4908, supplemented MHB was used. […] Three repeats of each MIC determination were performed.

[11] = test system: bacterial pathogens and C. albicans; assay: Spectrum of antimicrobial activity (MIC panel, overall); type: cell-based; conditions: summary of MIC results against bacteria and C. albicans
Description: Three repeats of each MIC determination were performed.
The minimal inhibitory concentrations of the chemically produced peptides against a wide range of baterial pathogens and C. albicans were determined and are shown in Table 9.

[12] = test system: Salmonella enterica s. Typhimurium MS4252S (C610, supersusceptible strain); type: cell-based; conditions: lowest peptide concentration inhibiting growth by at least 50%; Mueller-Hinton broth
Description: as §1, §2

[13] = test system: Aeromonas salmonicida 97-4
Description: as §3, §4, §2

Substance | Minimal inhibitory concentration, S. epi C621 [1] [µg/mL] | Minimal inhibitory concentration, P. aeru Z61 [2] [µg/mL] | Minimal inhibitory concentration, C. alb C627 [3] [µg/mL] | Minimal inhibitory concentration, A. sal 99-1 [4] [µg/mL] | Minimal inhibitory concentration, E. coli DC2 [5] [µg/mL] | Minimal inhibitory concentration, E. coli UB1005 [6] [µg/mL] | Minimal inhibitory concentration, P. aeru K799 [7] [µg/mL] | Minimal inhibitory concentration, S. typh 14028s [8] [µg/mL] | Minimal inhibitory concentration, MRSA C623 [9] [µg/mL] | Minimal inhibitory concentration, E. coli C786 [10] [µg/mL] | antimicrobial activity, overall (in words) [11] | Minimal inhibitory concentration, S. typh MS4252s [12] [µg/mL] | Minimal inhibitory concentration, A. sal 97-4 [13] [µg/mL]
RSTEDIIKSISGGGFLNAMNA-NH2 [NRC-8] | >64 | >64 | >64 | >64 | >64 | >64 | >64 | >64 | >64 | >64 | poor or no observed activities | >64 | >64
FFRLLFHGVHHVGKIKPRA-NH2 [NRC-10] | 32 | 8 | >64 | >64 | 32 | 32 | 32 | >64 | 64 | 32 | poor or no observed activities | 16 | 32
FFRLLFHGVHHGGGYLNAA-NH2 [NRC-9] | >64 | 64 | >64 | >64 | >64 | >64 | >64 | >64 | >64 | 64 | poor or no observed activities | 64 | >64
